Laboratory results: ChEMBL document CHEMBL5154644, “Design, Synthesis, and Structure-Activity Relationship Optimization of Pyrazolopyrimidine Amide Inhibitors of Phosphoinositide 3-Kinase γ (PI3Kγ)” (J Med Chem, 2022)

Columns and labels:
[1] = Hepatic clearance in Sprague-Dawley rat by LC-MS/MS analysis; type: ADME; conditions: in vivo
[2] = biological target: T1, Phosphatidylinositol 4,5-bisphosphate 3-kinase catalytic subunit delta isoform (Homo sapiens, UniProt O00329); assay: Inhibition of PI3Kdelta (unknown origin) using PIP2 as substrate preincubated for 1 hr followed by substrate addition and measured after 60 mins in presence of ATP by ADP-glo assay
T1 sequence (O00329 whole entry): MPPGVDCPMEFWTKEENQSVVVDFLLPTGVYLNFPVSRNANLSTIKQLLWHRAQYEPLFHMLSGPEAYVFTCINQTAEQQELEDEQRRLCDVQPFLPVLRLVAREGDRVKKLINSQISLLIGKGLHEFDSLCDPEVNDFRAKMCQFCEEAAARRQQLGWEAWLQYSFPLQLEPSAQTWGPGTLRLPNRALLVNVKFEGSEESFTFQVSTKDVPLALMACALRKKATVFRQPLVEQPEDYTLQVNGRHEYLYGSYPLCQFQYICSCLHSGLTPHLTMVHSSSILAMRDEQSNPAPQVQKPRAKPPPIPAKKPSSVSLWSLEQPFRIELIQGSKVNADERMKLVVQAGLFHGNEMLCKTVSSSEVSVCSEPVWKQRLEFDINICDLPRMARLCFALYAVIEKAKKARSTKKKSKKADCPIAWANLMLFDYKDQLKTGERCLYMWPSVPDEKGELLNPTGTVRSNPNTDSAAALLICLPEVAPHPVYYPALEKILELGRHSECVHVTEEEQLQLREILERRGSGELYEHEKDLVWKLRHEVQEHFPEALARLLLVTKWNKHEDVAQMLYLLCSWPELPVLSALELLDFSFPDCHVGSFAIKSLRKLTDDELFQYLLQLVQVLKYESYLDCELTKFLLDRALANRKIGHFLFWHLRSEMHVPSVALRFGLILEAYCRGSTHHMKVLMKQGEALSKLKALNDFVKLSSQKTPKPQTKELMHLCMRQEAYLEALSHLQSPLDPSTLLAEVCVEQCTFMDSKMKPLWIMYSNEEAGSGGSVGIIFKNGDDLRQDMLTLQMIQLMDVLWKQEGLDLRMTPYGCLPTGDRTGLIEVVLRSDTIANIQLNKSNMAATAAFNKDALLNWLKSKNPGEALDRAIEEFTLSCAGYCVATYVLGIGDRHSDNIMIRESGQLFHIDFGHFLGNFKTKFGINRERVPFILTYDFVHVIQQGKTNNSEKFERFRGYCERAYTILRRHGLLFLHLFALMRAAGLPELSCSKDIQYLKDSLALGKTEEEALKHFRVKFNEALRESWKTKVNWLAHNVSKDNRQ

[3] = biological target: T2, Phosphatidylinositol 4,5-bisphosphate 3-kinase catalytic subunit gamma isoform (Homo sapiens, UniProt P48736); assay: Inhibition of PI3Kgamma (unknown origin) using PIP2 as substrate preincubated for 1 hr followed by substrate addition and measured after 60 mins in presence of ATP by ADP-glo assay
T2 sequence (P48736 whole entry, canonical isoform): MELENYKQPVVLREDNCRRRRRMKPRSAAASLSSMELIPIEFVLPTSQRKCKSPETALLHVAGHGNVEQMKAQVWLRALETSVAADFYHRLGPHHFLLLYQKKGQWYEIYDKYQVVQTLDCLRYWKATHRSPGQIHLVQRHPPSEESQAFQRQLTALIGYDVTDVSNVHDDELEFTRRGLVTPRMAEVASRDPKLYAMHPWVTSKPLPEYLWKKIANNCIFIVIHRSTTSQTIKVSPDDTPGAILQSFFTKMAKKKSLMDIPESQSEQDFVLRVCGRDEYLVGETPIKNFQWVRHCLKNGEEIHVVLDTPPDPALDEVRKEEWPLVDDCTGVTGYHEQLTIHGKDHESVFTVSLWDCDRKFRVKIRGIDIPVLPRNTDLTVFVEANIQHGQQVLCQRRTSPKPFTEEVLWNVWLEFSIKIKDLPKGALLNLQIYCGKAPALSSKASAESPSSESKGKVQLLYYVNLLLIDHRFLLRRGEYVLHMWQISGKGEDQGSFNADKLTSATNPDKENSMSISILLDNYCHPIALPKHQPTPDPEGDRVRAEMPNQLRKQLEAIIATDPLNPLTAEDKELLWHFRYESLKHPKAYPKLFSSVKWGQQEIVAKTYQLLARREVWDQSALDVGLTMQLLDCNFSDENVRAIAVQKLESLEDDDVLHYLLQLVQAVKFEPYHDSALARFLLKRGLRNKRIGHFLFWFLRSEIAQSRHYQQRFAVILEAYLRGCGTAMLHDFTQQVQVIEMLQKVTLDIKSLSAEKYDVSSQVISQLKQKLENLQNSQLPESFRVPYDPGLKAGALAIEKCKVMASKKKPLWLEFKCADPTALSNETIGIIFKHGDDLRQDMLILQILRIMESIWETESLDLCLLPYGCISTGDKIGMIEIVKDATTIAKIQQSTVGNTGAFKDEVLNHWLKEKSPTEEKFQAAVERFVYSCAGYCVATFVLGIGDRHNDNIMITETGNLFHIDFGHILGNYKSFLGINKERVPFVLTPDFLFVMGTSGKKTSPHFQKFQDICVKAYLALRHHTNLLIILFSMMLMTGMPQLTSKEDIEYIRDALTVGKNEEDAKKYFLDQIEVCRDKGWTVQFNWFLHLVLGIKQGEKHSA

CYP3A4 = CYP3A4 (Homo sapiens, UniProt P08684); assay: in vitro; conditions: human liver microsomes, probe midazolam
CYP3A4, sequence (P08684 whole entry): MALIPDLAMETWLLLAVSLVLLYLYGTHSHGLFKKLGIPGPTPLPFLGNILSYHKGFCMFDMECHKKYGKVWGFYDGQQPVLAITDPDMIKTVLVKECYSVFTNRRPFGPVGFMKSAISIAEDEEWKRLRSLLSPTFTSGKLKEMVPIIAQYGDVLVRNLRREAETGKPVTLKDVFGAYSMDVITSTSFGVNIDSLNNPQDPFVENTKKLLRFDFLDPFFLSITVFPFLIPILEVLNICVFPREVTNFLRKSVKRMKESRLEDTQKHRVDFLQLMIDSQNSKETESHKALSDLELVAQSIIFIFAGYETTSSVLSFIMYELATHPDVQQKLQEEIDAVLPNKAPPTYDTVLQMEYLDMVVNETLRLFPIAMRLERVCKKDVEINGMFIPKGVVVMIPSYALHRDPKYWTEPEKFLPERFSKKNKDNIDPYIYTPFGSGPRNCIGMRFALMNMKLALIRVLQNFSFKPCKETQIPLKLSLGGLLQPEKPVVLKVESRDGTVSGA
Description: Time dependent inhibition of CYP3A4 in human liver microsomes at 10 uM using midazolam as substrate preincubated for 30 mins in presence of NADPH by LC/MS/MS analysis relative to control

[4] = Metabolic stability in rat hepatocyte assessed as intrinsic clearance per 10^8 cells at 0.5 uM by LC-MS/MS analysis; type: ADME, cell-based; conditions: hepatocytes
[5] = biological target: T2, Phosphatidylinositol 4,5-bisphosphate 3-kinase catalytic subunit gamma isoform; assay: Inhibition of PI3Kgamma (unknown origin) in […] stimulated human THP-1 cells assessed as reduction in Akt phosphorylation level at Ser473 residue preincubated for 60 mins followed by rhMCP-1 stimulation and measured after 2 mins by AlphaLisa assay; type: cell-based
[6] = biological target: Phosphatidylinositol 4,5-bisphosphate 3-kinase catalytic subunit alpha isoform (Homo sapiens, UniProt P42336); assay: Inhibition of PI3Kalpha (unknown origin) using PIP2 as substrate preincubated for 1 hr followed by substrate addition and measured after 60 mins in presence of ATP by ADP-glo assay
Phosphatidylinositol 4,5-bisphosphate 3-kinase catalytic subunit alpha isoform, sequence (P42336 whole entry, canonical isoform): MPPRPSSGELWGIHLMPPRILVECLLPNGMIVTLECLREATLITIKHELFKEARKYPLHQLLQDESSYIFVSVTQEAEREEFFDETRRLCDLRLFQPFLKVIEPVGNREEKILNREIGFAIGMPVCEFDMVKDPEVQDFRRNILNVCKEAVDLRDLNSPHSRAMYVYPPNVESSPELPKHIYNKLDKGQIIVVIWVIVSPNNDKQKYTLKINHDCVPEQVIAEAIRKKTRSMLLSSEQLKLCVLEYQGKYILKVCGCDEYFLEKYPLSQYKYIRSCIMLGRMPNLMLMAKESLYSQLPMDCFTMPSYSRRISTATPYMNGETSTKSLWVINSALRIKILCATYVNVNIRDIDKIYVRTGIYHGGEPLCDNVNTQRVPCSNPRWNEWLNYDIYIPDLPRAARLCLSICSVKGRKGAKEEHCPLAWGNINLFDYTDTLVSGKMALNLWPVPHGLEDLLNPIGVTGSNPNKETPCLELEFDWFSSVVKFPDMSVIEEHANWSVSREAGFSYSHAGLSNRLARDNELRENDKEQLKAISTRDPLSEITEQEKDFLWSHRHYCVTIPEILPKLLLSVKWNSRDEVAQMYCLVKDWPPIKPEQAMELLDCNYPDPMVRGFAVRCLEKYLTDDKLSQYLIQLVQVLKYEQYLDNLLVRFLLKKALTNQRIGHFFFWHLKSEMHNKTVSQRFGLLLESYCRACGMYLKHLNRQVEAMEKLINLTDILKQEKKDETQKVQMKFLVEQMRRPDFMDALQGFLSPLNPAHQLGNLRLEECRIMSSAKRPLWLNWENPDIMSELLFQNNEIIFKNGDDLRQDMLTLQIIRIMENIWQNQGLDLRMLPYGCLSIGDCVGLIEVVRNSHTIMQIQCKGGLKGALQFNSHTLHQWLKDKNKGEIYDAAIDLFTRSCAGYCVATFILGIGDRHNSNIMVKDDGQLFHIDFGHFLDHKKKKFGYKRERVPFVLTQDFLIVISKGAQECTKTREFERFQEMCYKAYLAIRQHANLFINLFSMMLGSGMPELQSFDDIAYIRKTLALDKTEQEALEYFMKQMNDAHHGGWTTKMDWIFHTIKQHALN

[7] = Metabolic stability in human hepatocytes assessed as intrinsic clearance per 10^6 cells at 0.5 uM by LC-MS/MS analysis; type: ADME, cell-based, Hepatocyte; conditions: read-out: CLH
Homo sapiens [8] = species on record: Homo sapiens; assay: Selectivity ratio of IC50 for inhibition of PI3Kdelta (unknown origin) to IC50 for inhibition of PI3Kgamma (unknown origin)
Homo sapiens [9] = species on record: Homo sapiens; assay: Selectivity ratio of IC50 for inhibition of PI3Kalpha (unknown origin) to IC50 for inhibition of PI3Kgamma (unknown origin)

| SMILES | CLH [1] [mL/min/kg] | IC50 [2] [nM] | IC50 [3] [nM] | inhibition at 30 min, 10 µM (CYP3A4) [%] | hepatocyte intrinsic clearance [4] [µL/min] | IC50 [5] [nM] | IC50 [6] [nM] | hepatocyte CLint at 0.5 µM [7] [µL/min/1e6 cells] | Ratio IC50 (Homo sapiens [8]) | Ratio IC50 (Homo sapiens [9]) |
| --- | --- | --- | --- | --- | --- | --- | --- | --- | --- | --- |
| Cc1cc(-c2ccn3nc(N)c(-c4cnn(C)c4)c3n2)cc2c1C(=O)N([C@@H](C)C1CC1)C2 | 21.7 | – | – | – | – | – | – | – | – | – |
| Cc1cc(-c2ccn3nc(N)c(C(=O)N[C@H]4CC[C@H](O)CC4)c3n2)cc2c1C(=O)N([C@@H](C)C1CC1)C2 | 50 | 61 | 1.2 | 26 | 10.8 | 106 | 188 | 4.76 | 51 | 156 |
| Cc1cc(-c2ccn3nc(N)c(C(=O)N[C@H](C)CO)c3n2)cc2c1C(=O)N([C@@H](C)C1CC1)C2 | 15 | 1280 | 3.5 | 19 | < 1.2 | 186 | 713 | 1.31 | 415 | 205 |
| Cc1cc(-c2ccn3ncc(C(=O)Nc4cnn(C)c4)c3n2)cc2c1C(=O)N([C@@H](C)C1CC1)C2 | 48.3 | – | 34.1 | 33 | 12.2 | 638 | – | 7.31 | – | – |
| Cc1cc(-c2ccn3nc(N)c(C(=O)NC4CCC4)c3n2)cc2c1C(=O)N([C@@H](C)C1CC1)C2 | 76.7 | 1590 | 2.3 | 46 | 82.7 | 292 | 3660 | 29.3 | 668 | 1580 |
| Cc1cc(-c2ccn3nc(N)c(C(=O)N[C@H]4CC[C@@](C)(O)CC4)c3n2)cc2c1C(=O)N([C@@H](C)C1CC1)C2 | 33 | > 10000 | 4.8 | – | 11.6 | 102 | > 10000 | < 1.2 | > 2090 | > 2090 |
| CNS(=O)(=O)c1cc(-c2ccn3nc(N)c(C(=O)NC4CC4)c3n2)cc2c1C(=O)N([C@@H](C)C1CC1)C2 | 35 | 256 | 2.7 | 34 | 4.91 | 36 | 519 | 4.46 | 96 | – |
| Cc1cc(-c2ccn3nc(N)c(C(=O)N[C@H]4CNC(=O)C4)c3n2)cc2c1C(=O)N([C@@H](C)C1CC1)C2 | 73.3 | 769 | 1.8 | 4 | 2.73 | 110 | 995 | < 1.2 | 439 | 568 |
| Cc1cc(-c2ccn3nc(N)c(C(=O)NC4CC4)c3n2)cc2c1C(=O)N([C@@H](C)C1CC1)C2 | 6.7 | 1670 | 3.6 | 27 | 1.5 | 212 | 3300 | 8.92 | 460 | 904 |
| CC(C)S(=O)(=O)c1cc(-c2ccn3nc(N)c(C(=O)NC4CC4)c3n2)cc2c1C(=O)N([C@@H](C)C1CC1)C2 | 28.3 | 714 | – | – | < 1.2 | – | 952 | 2.43 | – | – |
| Cc1cc(-c2ccn3nc(N)c(C(=O)N[C@H]4CCOC4)c3n2)cc2c1C(=O)N([C@@H](C)C1CC1)C2 | 130 | 598 | 1.8 | – | 13 | 148 | 974 | 9.35 | 352 | 580 |
| Cc1cc(-c2ccn3nc(N)c(C(=O)N[C@H]4C[C@H](O)C4)c3n2)cc2c1C(=O)N([C@@H](C)C1CC1)C2 | 40 | – | – | 14 | 15.7 | – | – | 11.3 | – | – |
| Cc1cc(-c2ccn3nc(N)c(C(=O)N[C@H]4CC[C@](C)(O)CC4)c3n2)cc2c1C(=O)N([C@@H](C)C1CC1)C2 | 71.7 | 155 | 3 | – | 22.1 | 76 | 240 | 8.7 | 53 | 82 |
| COc1cc(-c2ccn3nc(N)c(C(=O)NC4CC4)c3n2)cc2c1C(=O)N([C@@H](C)C1CC1)C2 | – | 459 | 3.8 | 28 | 2.07 | 121 | 281 | 1.81 | 122 | 74 |
| Cc1cc(-c2ccn3nc(N)c(C(=O)Nc4cnn(C)c4)c3n2)cc2c1C(=O)N([C@@H](C)C1CC1)C2 | 43.3 | – | 3.4 | 49 | 12.2 | 127 | – | 13.4 | – | – |
| C[C@@H](C1CC1)N1Cc2cc(-c3ccn4nc(N)c(C(=O)NC5CC5)c4n3)cc(NS(C)(=O)=O)c2C1=O | 12 | 417 | 2.7 | 37 | < 1.2 | 37 | 590 | < 1.2 | 157 | – |
